pIC50: −log10 of the molar value. Like-named read-outs stand apart in the source and are kept apart here.
How the values were obtained:
Type in all cases: cell-based
Ba/F3 ERBB2 YVMA = assay: Cell viability assay (CellTiter Glo), Ba/F3 cells engineered to express ERBB2 YVMA; settings: Mus musculus, BaF3, 72 h; for pIC50: Ba/F3 cells expressing human ERBB2 YVMA mutant, 72 hours, cell viability, CellTiter Glo, read-out: Ba/F3 ERBB2 YVMA, IC50; for IC50: read-out: Ba/F3 ERBB2 YVMA, IC50, nM
Protocol: Cells were treated with compounds, and cell viability was measured as a metric of kinase inhibition.
BT-474, A431, MDA-MB-175VII, NCI-H1781, MCF7, and Ba/F3 cell lines were tested. The Ba/F3 cell line is IL-3-dependent mouse cell line derived from the C3H mouse strain. Ba/F3 cell lines were engineered to express human ERBB2 or EGFR kinases, rendering the cells IL-3 independent. The lines were generated via retroviral transduction utilizing a Moloney murine leukemia virus (MMLV) promoter, and constructs are stably integrated into the cell genome. The sequences of the ERBB2 and EGFR genes used were NCBI Reference Sequences NM 004448.3 and NM 005228.3, respectively.
BT-474, A431, MDA-MB-175VII, NCI-H1781 and MCF7 cells were grown in the appropriate growth medium as described in Table B2 below, and harvested at 50-80% confluence. BT-474, A431, MDA-MB-175VII, NCI-H1781 and MCF7 cells were counted and seeded at 2,000 or 1,500 cells per well in 384-well tissue culture plates (see Table B2). Similarly, Ba/F3 cell lines engineered to express EGFR, ERBB2, or ERBB2 mutants were grown, harvested, counted and seeded at 3000 cells per well in 96-well plates. A subset of wells contained media only (low control, “LC”).
Table B1 provides the growth media and number of cells seeded per well for the each cell line.
Compounds were dissolved in DMSO and serially diluted. Serially-diluted compound or a DMSO only control (high control, “HC”) was added to the plated cells in each well. Compounds were tested at concentrations of about 10 μM to 0.51 nM, using three-fold dilutions. The final proportion of DMSO never exceeded 0.1%.
Plates were placed in a 37° C., 5% CO2 incubator for 72 hours. Plates were then removed from the incubator and equilibrated for 15 minutes at room temperature. […] of CellTiter Glo reagent (Promega) was added to measure the relative level of metabolically active cells by quantifying intracellular ATP concentrations. Plates were incubated for 30 minutes at room temperature, and luminescence was measured. Percent viability was normalized to a vehicle control only using the following formula: % viability=100×(Lumsample−LumLC)/(LumHC−LumLC). Graphical curves were fitted using a nonlinear regression model with a sigmoidal dose response.

[1] = target: phosphorylated ERBB2 (pERBB2) (Homo sapiens (Human), UniProt P04626); assay: Detection of phosphorylated ERBB2 (pERBB2) by ELISA in BT-474 cells; settings: four hours incubation with compound
Chain of phosphorylated ERBB2 (pERBB2) (P04626 23-1255): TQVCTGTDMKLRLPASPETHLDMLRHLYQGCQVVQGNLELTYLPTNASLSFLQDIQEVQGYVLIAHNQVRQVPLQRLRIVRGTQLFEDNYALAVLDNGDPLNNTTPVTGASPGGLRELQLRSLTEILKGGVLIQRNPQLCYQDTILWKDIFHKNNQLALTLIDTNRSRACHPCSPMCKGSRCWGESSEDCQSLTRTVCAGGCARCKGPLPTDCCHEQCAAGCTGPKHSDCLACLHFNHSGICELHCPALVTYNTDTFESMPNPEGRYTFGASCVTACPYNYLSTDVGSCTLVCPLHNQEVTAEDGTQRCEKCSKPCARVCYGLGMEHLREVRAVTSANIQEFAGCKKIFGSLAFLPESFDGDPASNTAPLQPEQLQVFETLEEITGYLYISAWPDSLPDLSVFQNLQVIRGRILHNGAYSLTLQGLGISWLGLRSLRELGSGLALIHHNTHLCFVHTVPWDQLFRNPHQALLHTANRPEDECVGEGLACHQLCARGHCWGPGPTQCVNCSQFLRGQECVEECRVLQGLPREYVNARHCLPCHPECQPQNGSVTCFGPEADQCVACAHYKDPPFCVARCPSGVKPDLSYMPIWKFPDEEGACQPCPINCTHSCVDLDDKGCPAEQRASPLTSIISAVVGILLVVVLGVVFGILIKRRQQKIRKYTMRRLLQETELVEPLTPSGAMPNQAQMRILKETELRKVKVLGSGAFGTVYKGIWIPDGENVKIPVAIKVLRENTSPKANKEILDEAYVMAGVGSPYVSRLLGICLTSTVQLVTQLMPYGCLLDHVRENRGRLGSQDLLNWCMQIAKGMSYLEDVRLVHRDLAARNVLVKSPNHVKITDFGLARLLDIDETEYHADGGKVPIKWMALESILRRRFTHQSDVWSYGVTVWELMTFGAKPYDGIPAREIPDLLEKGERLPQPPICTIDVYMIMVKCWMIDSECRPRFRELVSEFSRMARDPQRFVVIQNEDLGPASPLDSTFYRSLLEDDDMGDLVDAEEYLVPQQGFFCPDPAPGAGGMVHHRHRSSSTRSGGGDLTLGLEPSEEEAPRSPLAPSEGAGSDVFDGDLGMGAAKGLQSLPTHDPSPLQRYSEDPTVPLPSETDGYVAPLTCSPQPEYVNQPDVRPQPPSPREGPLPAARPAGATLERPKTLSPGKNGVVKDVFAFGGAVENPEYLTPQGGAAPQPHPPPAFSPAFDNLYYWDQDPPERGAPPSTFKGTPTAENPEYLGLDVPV
Protocol: BT-474 cells were seeded into a 96-well at 2.0*10^4 cells/100 μl/well. Compounds were dissolved and serially diluted in DMSO. The compounds were then were added, mixed, and incubated for four hours at 37° C., 5% CO2. […] Following the four hour incubation with compounds, cell lysates were prepared. Plates were centrifuged for 5 min at 3000 RPM, and supernatant was removed from each well. Cells were washed 3 times by resuspension in 150 μl PBS, followed by centrifugation and removal of the supernatant, as above. 100 μl of cell lysis buffer (Boston BioProducts, cat #BP-115D) supplied with 1× complete ULTRA cocktail inhibitor (Thermo ScientificTM, cat #78443) was then added to the washed cells. Cells were incubated with lysis buffer for 1 hour at 4° C., and then stored at -80° C. Enzyme-linked immunosorbent assays (ELISA) were performed to measure phosphorylated ERBB2 levels. […] The next day, plates were washed with PBS+0.05% Tween20 (PBST). 150 μl of 5% BSA blocking solution was added for 1 hour at room temperature, with shaking. Plates were washed with PB ST. Cell lysates were thawed and 100 μl of lysate was added to the ELISA plate. The plates were incubated for 2 hours at room temperature, with shaking. ELISA plates were then washed with PBST and 100 μl of an HRP-labeled detection antibody that binds phosphorylated tyrosine (R&D Systems, cat #841913) was added to each well. Plates were incubated for 1 hour at room temperature, with shaking. Plates were then washed with PBST, and 100 μl TMB substrate solution (R&D Systems, cat #DY999) was added. Plate were incubated in the dark for 20 minutes at room temperature. 50 μl of Stop solution (R&D Systems, cat #DY994) (50 μl) was added to each well and mixed. […] The remaining kinase activity by calculated using the following formula: % Relative activity=100×([…]). The low and high control values (“LC” and “HC”) were generated from lysate from wells without cells or with cells treated with 0.1% DMSO, respectively.

[2] = target: phosphorylated EGFR (pEGFR) (Homo sapiens (Human), UniProt P00533); assay: Detection of phosphorylated EGFR (pEGFR) in EGF-stimulated A431 cells (AlphaLISA); settings: A431 cells (10% FBS), 4 hours incubation, then EGF 30 ng/mL for 10 minutes
Chain of phosphorylated EGFR (pEGFR) (P00533 25-1210): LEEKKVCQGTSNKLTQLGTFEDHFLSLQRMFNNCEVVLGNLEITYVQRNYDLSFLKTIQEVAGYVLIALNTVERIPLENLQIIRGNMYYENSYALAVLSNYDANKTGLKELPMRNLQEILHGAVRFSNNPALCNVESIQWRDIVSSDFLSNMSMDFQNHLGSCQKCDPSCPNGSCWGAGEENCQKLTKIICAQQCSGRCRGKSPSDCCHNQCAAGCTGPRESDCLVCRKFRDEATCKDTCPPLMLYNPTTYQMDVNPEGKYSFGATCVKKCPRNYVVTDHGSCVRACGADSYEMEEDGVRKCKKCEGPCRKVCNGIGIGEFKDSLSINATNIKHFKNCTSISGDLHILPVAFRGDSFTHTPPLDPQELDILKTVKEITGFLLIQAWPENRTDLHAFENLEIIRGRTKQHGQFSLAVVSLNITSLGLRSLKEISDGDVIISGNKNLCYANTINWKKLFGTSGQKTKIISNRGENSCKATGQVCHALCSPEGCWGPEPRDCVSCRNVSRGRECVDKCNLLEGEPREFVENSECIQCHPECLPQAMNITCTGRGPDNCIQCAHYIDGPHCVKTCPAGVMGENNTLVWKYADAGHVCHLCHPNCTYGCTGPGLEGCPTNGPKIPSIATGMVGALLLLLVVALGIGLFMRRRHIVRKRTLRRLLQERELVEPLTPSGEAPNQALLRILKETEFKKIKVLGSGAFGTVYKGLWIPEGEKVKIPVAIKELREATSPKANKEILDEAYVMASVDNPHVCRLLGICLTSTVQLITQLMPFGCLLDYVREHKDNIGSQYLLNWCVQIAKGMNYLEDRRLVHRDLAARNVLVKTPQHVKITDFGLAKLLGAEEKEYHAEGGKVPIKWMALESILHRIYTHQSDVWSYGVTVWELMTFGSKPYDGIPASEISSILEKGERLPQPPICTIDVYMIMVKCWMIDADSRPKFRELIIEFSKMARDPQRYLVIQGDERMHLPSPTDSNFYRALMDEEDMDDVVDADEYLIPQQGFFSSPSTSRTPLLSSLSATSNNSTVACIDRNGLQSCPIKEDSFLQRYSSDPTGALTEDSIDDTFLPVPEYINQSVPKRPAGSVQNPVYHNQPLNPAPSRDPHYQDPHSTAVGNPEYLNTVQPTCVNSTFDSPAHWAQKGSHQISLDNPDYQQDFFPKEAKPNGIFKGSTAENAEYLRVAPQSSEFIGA
Protocol: […] were performed to measure phosphorylated EGFR levels using A431 cells (10% FBS). A431 (1.0*10^4 cells/40 μl/well) cells were seeded in 384 well. Compounds were dissolved in DMSO, serially diluted in DMSO and then were added, mixed, and incubated for 4 hours at 37° C., 5% CO2. Following the 4-hours incubation, cells were stimulated for 10 minutes with EGF (Invitrogen, cat #PHG0311) at a final concentration of 30 ng/mL in the incubator. The media was aspirated and cells were lysed in […] lysis buffer with protease and phosphatase inhibitors (PerkinElmer, cat #ALSU-PEGFR-A50K). The plates were placed on a shaker for 5 minutes and then incubated for 30 min at 4° C. for complete lysis. The lysate was transferred to an Optiplate (Perkin Elmer, cat #6007290).
Acceptor mix (PerkinElmer, cat #ALSU-PEGFR-A50K) was prepared just before use and 5 μL was dispensed to all the wells, followed by a 1.5-2 h incubation at room temperature in dark. The donor mix (PerkinElmer, cat #ALSU-PEGFR-A50K) was prepared under low light conditions prior to use and […] of donor mix was added to all the wells under subdued lighting or green filters. The plates were placed on a shaker for 5 min, sealed, and incubated overnight at room temperature in dark. Plates were read on the Envision (PerkinElmer) using standard AlphaLISA settings.
The percentage of inhibition on EGFR phosphorylation was calculated following equation: % Inhibition=100×(LumHC−LumSample)/(LumHC−LumLC). The low and high controls (LC/HC) are generated from lysate from wells with cells treated with DMSO or […] Staurosporine (BioAustralis, cat #BIA-S1086), […]. IC50 values were calculated by fitting the Curve using XLfit (v5.3.1.3), equation 201: Y=Bottom+(Top−Bottom)/(1+10^((Log IC50−X)*HillSlope)).

Compound | pIC50 (Ba/F3 ERBB2 YVMA) | pIC50 [1] | pIC50 [2] | IC50 (Ba/F3 ERBB2 YVMA) [nM]
Cc1cc(Nc2ncnc3cc4c(nc23)N2CCCN(C(=O)/C=C/CN(C)C)C(CO4)C2)ccc1Oc1ccn2ncnc2c1 (racemic) [Compound 54, (E)-1-(4-((4-([1,2,4]triazolo[1,5-a]pyridin-7-yloxy)-3-methylphenyl)amino)-8,9,11,12-tetrahydro-6,11-methanopyrimido[4′,5′:5,6]pyrido[3,2-b][1,4,8]oxadiazecin-10(7H)-yl)-4-(dimethylamino)but-2-en-1-one] | 8.06 | 7.53 | < 5.00 | –
Cc1cc(Nc2ncnc3cc4c(nc23)N2CCCN(C(=O)/C=C/CN(C)C)C(CO4)C2)ccc1Oc1ccn2ncnc2c1 (single isomer, unassigned) [Example S55, Enantiomer 1, (E)-1-(4-((4-([1,2,4]triazolo[1,5-a]pyridin-7-yloxy)-3-methylphenyl)amino)-8,9,11,12-tetrahydro-6,11-methanopyrimido[4′,5′:5,6]pyrido[3,2-b][1,4,8]oxadiazecin-10(7H)-yl)-4-(dimethylamino)but-2-en-1-one] | – | 7.76 | – | –
Cc1cc(Nc2ncnc3cc4c(nc23)N2CCCN(C(=O)/C=C/CN(C)C)C(CO4)C2)ccc1Oc1ccn2ncnc2c1 (single isomer, unassigned) [Example S55, Enantiomer 2, (E)-1-(4-((4-([1,2,4]triazolo[1,5-a]pyridin-7-yloxy)-3-methylphenyl)amino)-8,9,11,12-tetrahydro-6,11-methanopyrimido[4′,5′:5,6]pyrido[3,2-b][1,4,8]oxadiazecin-10(7H)-yl)-4-(dimethylamino)but-2-en-1-one] | – | 6.52 | – | –
C=CC(=O)N1CCN2C[C@H]1COc1cc3ncnc(Nc4ccc(Cc5ccn6ncnc6c5)c(C)c4)c3nc12 [Compound 13, 1-((10S)-4-((4-([1,2,4]triazolo[1,5-a]pyridin-7-ylmethyl)-3-methylphenyl)amino)-7,8,10,11-tetrahydro-9H-6,10-methanopyrimido[4′,5′:5,6]pyrido[3,2-b][1,4,7]oxadiazonin-9-yl)prop-2-en-1-one] | – | 7.80 | 5.80 | 8.92
C=CC(=O)N1CCN2C[C@@H]1COc1cc3ncnc(Nc4ccc(Cc5ccn6ncnc6c5)c(C)c4)c3nc12 [Compound 19] | – | – | < 5.00 | > 500
[2H]C([2H])([2H])N(C/C=C/C(=O)N1CCN2C[C@H]1COc1cc3ncnc(Nc4ccc(Oc5ccn6ncnc6c5)c(C)c4)c3nc12)C([2H])([2H])[2H] [Compound 36, (E)-1-((10S)-4-((4-([1,2,4]triazolo[1,5-a]pyridin-7-yloxy)-3-methylphenyl)amino)-7,8,10,11-tetrahydro-9H-6,10-methanopyrimido[4′,5′:5,6]pyrido[3,2-b][1,4,7]oxadiazonin-9-yl)-4-(bis(methyl-d3)amino)but-2-en-1-one formic acid] | – | 8.00 | 5.79 | 6.19
[2H]C([2H])([2H])N(C/C=C/C(=O)N1CCN2C[C@H]1COc1cc3ncnc(Nc4cc(C)c(Oc5ccn6ncnc6c5)cc4F)c3nc12)C([2H])([2H])[2H] [Compound 46, (E)-1-((10S)-4-((4-([1,2,4]triazolo[1,5-a]pyridin-7-yloxy)-2-fluoro-5-methylphenyl)amino)-7,8,10,11-tetrahydro-9H-6,10-methanopyrimido[4′,5′:5,6]pyrido[3,2-b][1,4,7]oxadiazonin-9-yl)-4-(bis(methyl-d3)amino)but-2-en-1-one] | – | 8.16 | 5.61 | 7.04
Cc1cc(Nc2ncnc3cc4c(nc23)N2CCN(C(=O)/C=C/C3(F)CN(C)C3)[C@H](CO4)C2)ccc1Oc1ccn2ncnc2c1 [Compound 53, (E)-1-((10S)-4-((4-([1,2,4]triazolo[1,5-a]pyridin-7-yloxy)-3-methylphenyl)amino)-7,8,10,11-tetrahydro-9H-6,10-methanopyrimido[4′,5′:5,6]pyrido[3,2-b][1,4,7]oxadiazonin-9-yl)-3-(3-fluoro-1-methylazetidin-3-yl)prop-2-en-1-one] | 6.93 | – | – | –
Cc1cc(Nc2ncnc3cc4c(nc23)N2CCN(C(=O)/C=C/CN(C)C)CC(CO4)C2)ccc1Oc1ccn2ncnc2c1 (centres unmarked) [Compound 57, (E)-1-(4-((4-([1,2,4]triazolo[1,5-a]pyridin-7-yloxy)-3-methylphenyl)amino)-7,8,11,12-tetrahydro-6,11-methanopyrimido[4′,5′:5,6]pyrido[3,2-b][1,4,7]oxadiazecin-9(10H)-yl)-4-(dimethylamino)but-2-en-1-one] | 6.76 | – | – | –
[2H]C([2H])(/C=C/C(=O)N1CCN2C[C@H]1COc1cc3ncnc(Nc4cc(C)c(Oc5ccn6ncnc6c5)cc4F)c3nc12)N(C)C [Compound 58, (E)-1-((10S)-4-((4-([1,2,4]triazolo[1,5-a]pyridin-7-yloxy)-2-fluoro-5-methylphenyl)amino)-7,8,10,11-tetrahydro-9H-6,10-methanopyrimido[4′,5′:5,6]pyrido[3,2-b][1,4,7]oxadiazonin-9-yl)-4-(dimethylamino)but-2-en-1-one-4,4-d2] | 8.11 | 8.26 | 6.06 | –
CCOc1cc2ncc(C#N)c(Nc3ccc(OCc4ccccn4)c(Cl)c3)c2cc1NC(=O)/C=C/CN(C)C [Neratinib, neratinib, reference compound] | – | – | – | 3.5
Cc1cc(Nc2ncnc3ccc(NC4=NC(C)(C)CO4)cc23)ccc1Oc1ccn2ncnc2c1 [Tucatinib, tucatinib, reference compound] | 6.98 | – | – | –
